Laboratory results taken from PubChem BioAssay AID651547 (The Scripps Research Institute Molecular Screening Center, 2012).
Activity calls are given as the source filed them.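 How the source made its calls: active means potency, meaning EC50, at or under 10 µM; inactive means the rest.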

Target: Melanocortin receptor 4 (Homo sapiens) (UniProt P32245)
Assay: MC4R agonists of cAMP signaling, late-stage follow-up, cell-based, FRET (AID 651547)
Conditions: MC4R-expressing cells, cAMP TR-FRET (LANCE Ultra), agonist

Sequence of Melanocortin receptor 4 (Homo sapiens) (P32245 whole entry, looked up): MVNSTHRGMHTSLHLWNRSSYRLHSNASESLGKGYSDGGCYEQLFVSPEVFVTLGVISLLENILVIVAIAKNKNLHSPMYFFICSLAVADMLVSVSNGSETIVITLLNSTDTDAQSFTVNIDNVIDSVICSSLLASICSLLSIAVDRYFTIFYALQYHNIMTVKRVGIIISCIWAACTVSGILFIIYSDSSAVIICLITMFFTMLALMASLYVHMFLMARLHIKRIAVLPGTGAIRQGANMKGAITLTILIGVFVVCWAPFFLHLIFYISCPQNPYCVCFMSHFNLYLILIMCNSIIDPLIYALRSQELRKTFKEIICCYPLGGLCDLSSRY

SMILES	EC50
COc1ccc(N(C(C)=O)C(C(=O)NC2CCCC2)c2cccs2)cc1OC (centres undefined)	> 50 µM (inactive)
CCC1CCCCN1S(=O)(=O)c1ccc(NC(=O)c2ccccc2)cc1 (centres undefined)	> 50 µM (inactive)
CCC1CCCCN1S(=O)(=O)c1ccc(NC(=O)c2cccc(S(C)(=O)=O)c2)cc1 (centres undefined)	> 50 µM (inactive)
CNC(=O)c1cc(Oc2ccc(NC(=O)Nc3ccc(Cl)c(C(F)(F)F)c3)cc2)ccn1	> 50 µM (inactive)
CCC1CCCCN1S(=O)(=O)c1ccc(NC(=O)c2nc(S(C)(=O)=O)ncc2Cl)cc1 (centres undefined)	> 50 µM (inactive)
C#CC(=O)N(c1ccc(OC)c(OC)c1)C(C(=O)NC1CCCC1)c1cccs1 (centres undefined)	> 50 µM (inactive)
CC1CCCCN1S(=O)(=O)c1ccc(NC(=O)c2nc(S(C)(=O)=O)ncc2Cl)cc1 (centres undefined)	> 50 µM (inactive)
CNC(=O)c1cc(Oc2ccc(NCC(=O)Nc3ccc(Cl)c(C(F)(F)F)c3)cc2)ccn1	> 50 µM (inactive)
COc1ccccc1C1(CCNC(C)c2cccs2)CCOC(C(C)C)C1 (centres undefined)	> 50 µM (inactive)
CC(=O)c1ccc(Nc2nc3ccc(C(=O)N(CCC(C)C)CCC(C)C)cc3n2CCCN2CCCCC2)cc1	> 50 µM (inactive)
CCC1CCCCN1S(=O)(=O)c1ccc(NC(=O)c2ccnc(SC)n2)cc1 (centres undefined)	> 50 µM (inactive)
CNC(=O)c1cc(Oc2ccc(NC(=O)CNc3ccc(Cl)c(C(F)(F)F)c3)cc2)ccn1	> 50 µM (inactive)
Cc1ccccc1CN1Cc2cnnn2-c2ccccc2C1C#N (centres undefined)	> 50 µM (inactive)
O=C1c2cccc3cccc(c23)C(=O)N1CC1CCN(CC(O)COc2ccc3ccccc3c2)CC1 (centres undefined)	> 50 µM (inactive)
